{"source": "patent US20080145858A1", "about": "“DETECTION AND IDENTIFICATION OF TOXICANTS BY MEASUREMENT OF GENE […]” (priority 2003, published 2008)", "system": "Xenopus laevis cleavage stage embryos (stage 8)", "assay": "Xenopus cDNA microarray, differential gene expression after PMA treatment during cleavage stage (Group I)", "type": "in vivo", "details": "PMA 100 ng/ml, stage 8", "source_text": "Specifically, the method and screen of the present invention function as follows. EST clones produced from Xenopus laevis unfertilized eggs were used in the present study with ˜1,200 EST clones from a 18,500 EST clone set selected for production of a Xenopus cDNA microarray. The Xenopus microarray was used to measure the effect of chemical treatment on Xenopus embryo gene regulation. The chemical treatment was a phorbol ester, PMA. Xenopus eggs were obtained from females induced for ovulation and fertilized in vitro. Control Xenopus laevis embryos were allowed to develop to stage 8 blastula or stage 15 neurula. Treated embryos were exposed to PMA during cleavage stage or during neurulation with end points of blastula (stage 8) or neurula (stage 15). Specifically, PMA 100 ng/ml was added to the incubation media during cleavage stages for evaluation in stage 8 embryo or PMA was added during neural induction for evaluation in stage 15 embryos. RNA extracted from the embryos was used to generate fluorescent cDNA probes for Xenopus microarray analyses to measure differential gene expression with and without the phorbol ester treatment. Analysis was performed using paired RNA samples to compare PMA-treated and untreated embryos: Group I measured the effects of PMA-treatment during the cleavage stage in stage 8 embryos and Group II measured the effects of PMA-treatment during neurulation in stage 15 embryos. Group III measured the change in gene expression between stage 8 and stage 15 embryos.\ncDNA fragments were obtained by PCR replication of Xenopus laevis unfertilized egg cDNA inserts, purified, quantitated and loaded onto glass chips by robotics. In addition to the selected ˜1,200 genes, 64 lambda Q gene, an internal control cDNA (Genomic Solutions, Inc., Ann Arbor, Mich.) was loaded on the chip. The insert DNA from ˜1,200 clones were PCR amplified using forward and reverse primers (GF.200 primers, Research Genetics, Huntsville, Ala.). A second PCR was carried out using 1 μl of the primary PCR (20 μl) for template. Excess dNTPs, polymerase and other PCR artifacts were removed from the secondary PCR reactions using Millipore Multiscreen plates (Millipore Corporation, Bedford, Mass.) using the standard protocol. The purity of the PCR products was assessed by electrophoresis and documented using an Alphalmager 1000 Digital Imaging System (Alpha Innotech Corporation, San Leandro, Calif.). The DNA obtained by PCR was quantitated using PicoGreen (Molecular Probes, Eugene, Oreg.). The DNA was denatured and arrayed onto amino-silane coated microscope slides (CMT-GAPS coated slides, Corning, Corning, N.Y.) using a Flexys robotic workstation (Genomic Solutions Inc.). The ˜1,200 PCR products were arrayed in duplicate on each slide and cross-linked. Each gene chip contained duplicate cDNA samples.\nTotal RNA was prepared from embryos treated in three separate dishes per treatment group that were pooled. Total RNA was isolated from the frog embryos (1,200 embryos for each probe production) using TRIzol extraction (Gibco BRL, Grand Island, N.Y.) and Qiagen RNeasy kits (Qiagen, Valencia, Calif.). The ethanol precipitated RNA was resuspended in RNase-free water, quantitated with RiboGreen (Molecular Probes, Eugene, Oreg.). Total RNA was further purified using oligoTex mRNA maxi kit (Qiagen Co.) with the bound mRNA eluted with minimum volume of elution buffer and precipitated with ethanol. The recovery rate of mRNA by the ethanol precipitation method was ˜70%. Cy3- or Cy5-tagged probes were produced from an mRNA mixture (20 μl) of Xenopus mRNA (5 μg) and lambda Q gene mRNA (3.5 ng) reverse-transcribed with oligo(dT)18-22 primer and dNTPs and the reverse-transcribed cDNA was cross-linked with Cy3 or Cy5 as described in Clontech Atlas™ Glass Fluorescent Labeling kit manual (www.clontech.com). After hydrolysis of the RNA and purification of the probe (Centricon 50, Millipore, Bedford, Mass.), the cDNA in TE buffer was quantitated by absorbance at 260 nm. […]"}
{"smiles": "CCCCCCCCCCCCCC(=O)O[C@@H]1[C@@H](C)[C@@]2(O)[C@@H](C=C(CO)C[C@]3(O)C(=O)C(C)=C[C@@H]23)[C@@H]2C(C)(C)[C@]12OC(C)=O", "note": "[PMA, phorbol 12-myristate 12-acetate]", "values": [{"measurement": "Ratio of Medians (Cy5/Cy3) Mean", "setting": "PBX0138A04 mRNA", "value": "2.99 ± 1.32"}, {"measurement": "Ratio of Medians (Cy5/Cy3) Second Spot", "setting": "PBX0138A04 mRNA", "value": 4.33}, {"measurement": "(CY3/CY5) by Landmarks (1.6)", "setting": "PBX0138C12 mRNA", "value": 3.59}, {"measurement": "(CY3/CY5) by all Data Points (1.3)", "setting": "PBX0138C12 mRNA", "value": 5.74}, {"measurement": "Normalization by Landmarks (1.6)", "setting": "PBX0138C12 mRNA", "value": 0.28}, {"measurement": "Normalization by all Data Points (1.3)", "setting": "PBX0138C12 mRNA", "value": 0.17}, {"measurement": "Ratio of Medians (Cy5/Cy3) First Spot", "setting": "PBX0138C12 mRNA", "value": 0.14}, {"measurement": "Ratio of Medians (Cy5/Cy3) Mean", "setting": "PBX0138C12 mRNA", "value": "0.13 ± 0.01"}, {"measurement": "Ratio of Medians (Cy5/Cy3) Second Spot", "setting": "PBX0138C12 mRNA", "value": 0.13}, {"measurement": "Normalized by Landmarks (1.59)", "setting": "PBX0138D01 mRNA", "value": 4.45}, {"measurement": "Normalized by all Data Points (1.28)", "setting": "PBX0138D01 mRNA", "value": 3.58}, {"measurement": "Ratio of Medians (Cy5/Cy3) First Spot", "setting": "PBX0138D01 mRNA", "value": 3.50}, {"measurement": "Ratio of Medians (Cy5/Cy3) Mean", "setting": "PBX0138D01 mRNA", "value": "2.80 ± 0.70"}, {"measurement": "Ratio of Medians (Cy5/Cy3) Second Spot", "setting": "PBX0138D01 mRNA", "value": 2.10}, {"measurement": "(CY3/CY5) by Landmarks (1.6)", "setting": "PBX0138E10 mRNA", "value": 2.68}, {"measurement": "(CY3/CY5) by all Data Points (1.3)", "setting": "PBX0138E10 mRNA", "value": 4.29}, {"measurement": "Normalization by Landmarks (1.6)", "setting": "PBX0138E10 mRNA", "value": 0.37}, {"measurement": "Normalization by all Data Points (1.3)", "setting": "PBX0138E10 mRNA", "value": 0.23}, {"measurement": "Ratio of Medians (Cy5/Cy3) First Spot", "setting": "PBX0138E10 mRNA", "value": 0.15}, {"measurement": "Ratio of Medians (Cy5/Cy3) Mean", "setting": "PBX0138E10 mRNA", "value": "0.18 ± 0.03"}, {"measurement": "Ratio of Medians (Cy5/Cy3) Second Spot", "setting": "PBX0138E10 mRNA", "value": 0.21}, {"measurement": "(CY3/CY5) by Landmarks (1.6)", "setting": "PBX0138G10 mRNA", "value": 3.35}, {"measurement": "(CY3/CY5) by all Data Points (1.3)", "setting": "PBX0138G10 mRNA", "value": 5.36}, {"measurement": "Normalization by Landmarks (1.6)", "setting": "PBX0138G10 mRNA", "value": 0.30}, {"measurement": "Normalization by all Data Points (1.3)", "setting": "PBX0138G10 mRNA", "value": 0.19}, {"measurement": "Ratio of Medians (Cy5/Cy3) First Spot", "setting": "PBX0138G10 mRNA", "value": 0.10}, {"measurement": "Ratio of Medians (Cy5/Cy3) Mean", "setting": "PBX0138G10 mRNA", "value": "0.14 ± 0.04"}, {"measurement": "Ratio of Medians (Cy5/Cy3) Second Spot", "setting": "PBX0138G10 mRNA", "value": 0.18}, {"measurement": "(CY3/CY5) by Landmarks (1.6)", "setting": "PBX0138G12 mRNA", "value": 2.56}, {"measurement": "(CY3/CY5) by all Data Points (1.3)", "setting": "PBX0138G12 mRNA", "value": 4.09}, {"measurement": "Normalization by Landmarks (1.6)", "setting": "PBX0138G12 mRNA", "value": 0.39}, {"measurement": "Normalization by all Data Points (1.3)", "setting": "PBX0138G12 mRNA", "value": 0.24}, {"measurement": "Ratio of Medians (Cy5/Cy3) First Spot", "setting": "PBX0138G12 mRNA", "value": 0.17}, {"measurement": "Ratio of Medians (Cy5/Cy3) Mean", "setting": "PBX0138G12 mRNA", "value": "0.19 ± 0.02"}, {"measurement": "Ratio of Medians (Cy5/Cy3) Second Spot", "setting": "PBX0138G12 mRNA", "value": 0.21}, {"measurement": "Normalized by Landmarks (1.59)", "setting": "PBX0139A08 mRNA", "value": 4.21}, {"measurement": "Normalized by all Data Points (1.28)", "setting": "PBX0139A08 mRNA", "value": 3.39}, {"measurement": "Ratio of Medians (Cy5/Cy3) First Spot", "setting": "PBX0139A08 mRNA", "value": 2.00}, {"measurement": "Ratio of Medians (Cy5/Cy3) Mean", "setting": "PBX0139A08 mRNA", "value": "2.65 ± 0.65"}, {"measurement": "Ratio of Medians (Cy5/Cy3) Second Spot", "setting": "PBX0139A08 mRNA", "value": 3.29}, {"measurement": "Normalized by Landmarks (1.59)", "setting": "PBX0139B06 mRNA", "value": 5.45}, {"measurement": "Normalized by all Data Points (1.28)", "setting": "PBX0139B06 mRNA", "value": 4.39}, {"measurement": "Ratio of Medians (Cy5/Cy3) First Spot", "setting": "PBX0139B06 mRNA", "value": 4.00}, {"measurement": "Ratio of Medians (Cy5/Cy3) Mean", "setting": "PBX0139B06 mRNA", "value": "3.43 ± 0.57"}, {"measurement": "Ratio of Medians (Cy5/Cy3) Second Spot", "setting": "PBX0139B06 mRNA", "value": 2.86}, {"measurement": "(CY3/CY5) by Landmarks (1.6)", "setting": "PBX0139D03 mRNA", "value": 3.15}, {"measurement": "(CY3/CY5) by all Data Points (1.3)", "setting": "PBX0139D03 mRNA", "value": 5.04}, {"measurement": "Normalization by Landmarks (1.6)", "setting": "PBX0139D03 mRNA", "value": 0.32}, {"measurement": "Normalization by all Data Points (1.3)", "setting": "PBX0139D03 mRNA", "value": 0.20}, {"measurement": "Ratio of Medians (Cy5/Cy3) First Spot", "setting": "PBX0139D03 mRNA", "value": 0.04}, {"measurement": "Ratio of Medians (Cy5/Cy3) Mean", "setting": "PBX0139D03 mRNA", "value": "0.15 ± 0.11"}, {"measurement": "Ratio of Medians (Cy5/Cy3) Second Spot", "setting": "PBX0139D03 mRNA", "value": 0.26}, {"measurement": "(CY3/CY5) by Landmarks (1.6)", "setting": "PBX0139F05 mRNA", "value": 3.52}, {"measurement": "(CY3/CY5) by all Data Points (1.3)", "setting": "PBX0139F05 mRNA", "value": 5.64}, {"measurement": "Normalization by Landmarks (1.6)", "setting": "PBX0139F05 mRNA", "value": 0.28}, {"measurement": "Normalization by all Data Points (1.3)", "setting": "PBX0139F05 mRNA", "value": 0.18}, {"measurement": "Ratio of Medians (Cy5/Cy3) First Spot", "setting": "PBX0139F05 mRNA", "value": 0.15}, {"measurement": "Ratio of Medians (Cy5/Cy3) Mean", "setting": "PBX0139F05 mRNA", "value": "0.14 ± 0.02"}, {"measurement": "Ratio of Medians (Cy5/Cy3) Second Spot", "setting": "PBX0139F05 mRNA", "value": 0.12}, {"measurement": "(CY3/CY5) by Landmarks (1.6)", "setting": "PBX0139F12 mRNA", "value": 2.63}, {"measurement": "(CY3/CY5) by all Data Points (1.3)", "setting": "PBX0139F12 mRNA", "value": 4.21}, {"measurement": "Normalization by Landmarks (1.6)", "setting": "PBX0139F12 mRNA", "value": 0.38}, {"measurement": "Normalization by all Data Points (1.3)", "setting": "PBX0139F12 mRNA", "value": 0.24}, {"measurement": "Ratio of Medians (Cy5/Cy3) First Spot", "setting": "PBX0139F12 mRNA", "value": 0.20}, {"measurement": "Ratio of Medians (Cy5/Cy3) Mean", "setting": "PBX0139F12 mRNA", "value": "0.18 ± 0.02"}, {"measurement": "Ratio of Medians (Cy5/Cy3) Second Spot", "setting": "PBX0139F12 mRNA", "value": 0.16}, {"measurement": "(CY3/CY5) by Landmarks (1.6)", "setting": "PBX0139H03 mRNA", "value": 2.11}, {"measurement": "(CY3/CY5) by all Data Points (1.3)", "setting": "PBX0139H03 mRNA", "value": 3.38}, {"measurement": "Normalization by Landmarks (1.6)", "setting": "PBX0139H03 mRNA", "value": 0.47}, {"measurement": "Normalization by all Data Points (1.3)", "setting": "PBX0139H03 mRNA", "value": 0.30}, {"measurement": "Ratio of Medians (Cy5/Cy3) First Spot", "setting": "PBX0139H03 mRNA", "value": 0.26}, {"measurement": "Ratio of Medians (Cy5/Cy3) Mean", "setting": "PBX0139H03 mRNA", "value": "0.23 ± 0.03"}, {"measurement": "Ratio of Medians (Cy5/Cy3) Second Spot", "setting": "PBX0139H03 mRNA", "value": 0.20}]}
